Measured values from paper PMC6137095 (Scientific Reports, 2018).

Tests used:
Format in all cases: binding
mSin3B PAH1 domain [1] = target: T1, mSin3B PAH1 domain (Mus musculus, UniProt Q62141); assay: STD, WaterLOGSY and HSQC NMR
T1 construct: gene Sin3b; PAH1 domain, a.a; 28–107 with a Met at the N-terminus (GST fusion for WaterLOGSY/STD)
T1 sequence (Q62141 28-107): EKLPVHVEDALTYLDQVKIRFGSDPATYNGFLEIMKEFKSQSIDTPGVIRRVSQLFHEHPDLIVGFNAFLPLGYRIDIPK

mSin3B PAH1 domain [2] = target: T1, mSin3B PAH1 domain; assay: WaterLOGSY NMR titration; STD and 1H-15N HSQC
mSin3B PAH1 domain [3] = target: T1, mSin3B PAH1 domain; assay: 1H-15N HSQC, STD and WaterLOGSY NMR (weak/moderate)
mSin3B PAH1 domain [4] = target: T1, mSin3B PAH1 domain; assay: 1H-15N HSQC titration, STD and WaterLOGSY NMR

Fc1ccc([C@@H]2CCNC[C@H]2COc2ccc3c(c2)OCO3)cc1 [paroxetine]
STD, WaterLOGSY and HSQC NMR (mSin3B PAH1 domain [1]): STD, WaterLOGSY, and HSQC experiments showed that paroxetine binds strongly to the PAH1 domain of mSin3B

CN(C)CC/C=C1/c2ccccc2Sc2ccc(Cl)cc21 [YN28, chlorprothixene]
Kd (mSin3B PAH1 domain [2]): 35 ± 11 µM

Clc1ccc2c(c1)C(N1CCNCC1)=Nc1ccccc1O2 [YN42]
1H-15N HSQC, STD and WaterLOGSY NMR (weak/moderate) (mSin3B PAH1 domain [3]): only YN39, YN40, and YN42 showed clear signals in the STD spectra

CNCCCC12CCC(c3ccccc31)c1ccccc12 [YN40]
1H-15N HSQC, STD and WaterLOGSY NMR (weak/moderate) (mSin3B PAH1 domain [3]): only YN39, YN40, and YN42 showed clear signals in the STD spectra

COc1cc(CNC(=O)CCCC/C=C/C(C)C)ccc1O [YN39]
1H-15N HSQC, STD and WaterLOGSY NMR (weak/moderate) (mSin3B PAH1 domain [3]): only YN39, YN40, and YN42 showed clear signals in the STD spectra

CN(C)CCCN1c2ccccc2Sc2ccc(Cl)cc21 [YN29, chlorpromazine]
Kd (mSin3B PAH1 domain [2]): 15 ± 4.2 µM

C#CC(C)(O)CCc1cc(C)c(OC)cc1C (stereo not shown) [YN3]
1H-15N HSQC titration, STD and WaterLOGSY NMR (mSin3B PAH1 domain [4]): four compounds YN29, YN31, YN3, and YN28, have a strong affinity for the mSin3B PAH1 domain
